Reference: patent US9573957B2 (Boehringer Ingelheim International GmbH, priority 2013, dated 2017)
pIC50: −log10 of the molar value.

Columns and labels:
[1] = molecular target: human LTA4 hydrolase (Homo sapiens (Human), UniProt P09960); assay: LTA4H Enzyme assay (peptidase, Arg-AMC cleavage); format: biochemical; settings: LTA4H Enzyme 1 nM, Arg-AMC substrate 50 μM, room temperature 1 h, fluorescence
Outline: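 Aminomethylcoumarin release measured fluorimetrically (380/460 nm) after 1 h at room temperature. Reaction: 1 nM final enzyme, 50 μM final Arg-AMC and compound in Tris-HCl pH 7.5 with 100 mM KCl and 0.5% BSA.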

[2] = tested on: synthesis of LTB4 in human whole blood; assay: LTB4 production inhibition assay in human whole blood (HWB); format: cell-based; settings: heparinized human whole blood, 15 min at 37° C., Calcimycin 20 μM 30 min, plasma LTB4 by HTRF
Outline: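 LTB4 in plasma read by HTRF immunoassay after centrifugation. Before that, compound sat with heparinized human whole blood 15 min at 37° C, followed by 30 min at 37° C with 20 μM (final) calcimycin.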

human LTA4 hydrolase, sequence (P09960 whole entry): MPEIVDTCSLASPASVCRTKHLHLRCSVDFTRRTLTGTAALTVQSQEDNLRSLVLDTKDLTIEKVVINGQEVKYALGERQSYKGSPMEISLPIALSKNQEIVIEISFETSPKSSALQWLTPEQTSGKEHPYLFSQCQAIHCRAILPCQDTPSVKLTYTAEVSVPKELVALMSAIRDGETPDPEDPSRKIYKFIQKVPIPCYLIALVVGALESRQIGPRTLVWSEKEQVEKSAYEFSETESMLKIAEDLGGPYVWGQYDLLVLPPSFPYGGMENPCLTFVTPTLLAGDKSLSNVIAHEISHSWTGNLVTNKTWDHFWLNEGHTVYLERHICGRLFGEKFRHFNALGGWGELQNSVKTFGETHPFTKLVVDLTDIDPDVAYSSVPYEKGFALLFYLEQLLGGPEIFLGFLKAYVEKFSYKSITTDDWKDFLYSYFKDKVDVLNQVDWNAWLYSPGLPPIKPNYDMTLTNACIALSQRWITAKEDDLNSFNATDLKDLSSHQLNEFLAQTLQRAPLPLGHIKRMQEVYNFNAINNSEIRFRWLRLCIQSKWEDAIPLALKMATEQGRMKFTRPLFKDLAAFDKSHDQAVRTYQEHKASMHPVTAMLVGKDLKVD

Row | SMILES | pIC50 [1] | pIC50 [2]
1 | C[C@@H](O)C(=O)N1CCN(Cc2cn3cc(Oc4ccc(-c5ccn[nH]5)cc4)ccc3n2)CC1 [Example 94, (R)-2-Hydroxy-1-(4-{6-[4-(2H-pyrazol-3-yl)-phenoxy]-imidazo[1,2-a]pyridin-2-ylmethyl}-piperazin-1-yl)-propan-1-one] | 9.06 | 6.46
2 | O=C(N1CCN(CCc2coc3cc(Oc4ccc(-c5ccn[nH]5)cn4)ccc23)CC1)C1(O)CC1 [Example 93, (1-Hydroxy-cyclopropyl)-[4-(2-{6-[5-(2H-pyrazol-3-yl)-pyridin-2-yloxy]-benzofuran-3-yl}-ethyl)-piperazin-1-yl]-methanone] | 9.04 | 6.28
3 | CN(C(=O)CO)[C@@H]1CCN(Cc2ccc3cc(Oc4ccc(-c5ccn[nH]5)cn4)ccc3c2)C1 [Example 21, 2-Hydroxy-N-methyl-N-((R)-1-{6-[5-(2H-pyrazol-3-yl)-pyridin-2-yloxy]-naphthalen-2-ylmethyl}-pyrrolidin-3-yl)-acetamide] | 9.17 | 7.00
4 | CC(C)OCC(=O)N1CCN(Cc2ccc3cc(Oc4ccc(-c5ccn[nH]5)cn4)ccc3n2)CC1 [Example 130, 2-Isopropoxy-1-(4-{6-[5-(2H-pyrazol-3-yl)-pyridin-2-yloxy]-quinolin-2-ylmethyl}-piperazin-1-yl)-ethanone] | 8.60 | 6.20
5 | CC(C)[C@H](O)C(=O)N1CCN(Cc2ccc3cc(Oc4ccc(-c5ccn[nH]5)cn4)ccc3n2)CC1 [Example 137, (S)-2-Hydroxy-3-methyl-1-(4-{6-[5-(2H-pyrazol-3-yl)-pyridin-2-yloxy]-quinolin-2-ylmethyl}-piperazin-1-yl)-butan-1-one] | 8.60 | 6.36

More lines, in order of rising pIC50 [1], values ahead:

Row | pIC50 [1] | pIC50 [2] | SMILES
6 | 8.64 | 6.49 | CC[C@H](O)C(=O)N1CCN(Cc2ccc3cc(Oc4ccc(-c5ccn[nH]5)cn4)ccc3n2)CC1 [Example 127, (S)-2-Hydroxy-1-(4-{6-[5-(2H-pyrazol-3-yl)-pyridin-2-yloxy]-quinolin-2-ylmethyl}-piperazin-1-yl)-butan-1-one]
7 | 9.06 | 6.60 | CO[C@@H](C)C(=O)N1CCN(CCc2coc3cc(Oc4ccc(-c5ccn[nH]5)cn4)ccc23)CC1 [Example 75, (S)-2-Methoxy-1-[4-(2-{6-[5-(2H-pyrazol-3-yl)-pyridin-2-yloxy]-benzofuran-3-yl}-ethyl)-piperazin-1-yl]-propan-1-one]
8 | 9.07 | 6.85 | CN(C(=O)CO)[C@H]1CCN(Cc2ccc3cc(Oc4ccc(-c5ccn[nH]5)cn4)ccc3n2)C1 [Example 99]
